Like-named read-outs stand apart in the source and are kept apart here.
How the values were obtained:
VIM-1 = VIM-1 (Pseudomonas aeruginosa (strain ATCC 15692 / DSM 22644 / CIP 104116 / JCM 14847 / LMG 12228 / 1C / PRS 101 / PAO1), UniProt A0A0F7KYQ8); assay: biochemical; conditions: CCF2-FA substrate, 30 pM enzyme, 2 hours at 25° C.
Method in brief: (§1)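 Two-hour, 25° C incubation of enzyme with inhibitor and CCF2-FA (7-hydroxycoumarin–cephalosporin–fluorescein). Fluorescence read-out; IC50 via 4-parameter fit.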

[1] = system: Pseudomonas aeruginosa efflux+ (MB9798), IMP-1; assay type: cell-based; design: Concentration of metallo-β-lactamase inhibitor which restores susceptibility of efflux + (MB9798) strain to imipenem: unit not given here; conditions: C, D serine β-lactamase inhibitor closely related to relebactam; for P. aeruginosa expressing IMP-1, efflux + (MB9798) MITC95: concentration restoring susceptibility to imipenem at 2 μg/mL in the presence of a class A; for Concentration of metallo-β-lactamase inhibitor which restores susceptibility of efflux + (MB9798) strain to imipenem: imipenem at 2 μg/mL, in the presence of a class A
Method in brief: (§2)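 Microbroth MIC tests in PAO1-background strains with fixed imipenem and/or ceftazidime, usually at the CLSI breakpoint, plus fixed class A/C β-lactamase inhibitor against AmpC. MBL inhibitor titrated; concentration restoring susceptibility recorded and compared as fold difference between efflux+ MB9798 and efflux− MB9799.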

NDM-1 = NDM-1 (Klebsiella pneumoniae, UniProt C7C422); assay: biochemical; assay type: biochemical; conditions: fluorescence assay, CCF2-FA substrate, 1 pM enzyme, 2 hours at 25° C.; read-out: NDM-1 IC50
NDM-1, sequence (C7C422 whole entry, looked up, species assumed): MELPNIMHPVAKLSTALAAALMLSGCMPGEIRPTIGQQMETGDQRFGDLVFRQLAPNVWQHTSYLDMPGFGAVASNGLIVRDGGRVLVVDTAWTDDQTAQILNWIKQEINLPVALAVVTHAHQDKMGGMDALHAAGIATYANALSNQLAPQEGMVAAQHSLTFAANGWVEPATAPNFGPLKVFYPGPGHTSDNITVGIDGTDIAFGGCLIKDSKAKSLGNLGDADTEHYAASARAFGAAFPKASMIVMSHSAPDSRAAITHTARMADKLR
Method in brief: as §1

IMP-1 = IMP-1 (Serratia marcescens, UniProt P52699); assay: biochemical; assay type: biochemical; conditions: CCF2-FA substrate, 2 pM enzyme, 2 hours at 25° C.
IMP-1, sequence (P52699 whole entry, looked up, species assumed): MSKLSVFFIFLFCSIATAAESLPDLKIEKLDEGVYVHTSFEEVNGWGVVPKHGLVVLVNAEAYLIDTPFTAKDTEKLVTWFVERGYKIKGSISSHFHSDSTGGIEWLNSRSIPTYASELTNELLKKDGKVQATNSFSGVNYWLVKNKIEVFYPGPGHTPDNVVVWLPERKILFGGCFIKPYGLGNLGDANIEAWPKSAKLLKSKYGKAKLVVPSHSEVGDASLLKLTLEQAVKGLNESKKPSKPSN
Method in brief: as §1

[2] = system: Pseudomonas aeruginosa efflux− (MB9799), IMP-1; assay type: cell-based; conditions: C, D serine β-lactamase inhibitor closely related to relebactam; for P. aeruginosa expressing IMP-1, efflux − (MB9799) MITC95: concentration restoring susceptibility to imipenem at 2 μg/mL in the presence of a class A; for Concentration of metallo-β-lactamase inhibitor which restores susceptibility of efflux − (MB9799) strain to imipenem: imipenem at 2 μg/mL, in the presence of a class A
Method in brief: as §2

[3] = system: Pseudomonas aeruginosa MB9798 vs MB9799
Method in brief: as §2

[4] = system: Escherichia coli expressing NDM-1 (CLB30005, CLB30016); assay type: cell-based; conditions: NDM-1 strain, with imipenem 1 μg/ml, 95% inhibition of growth
Method in brief: (§3)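 Clinical strains grown overnight on blood agar at 35°C, colonies suspended in saline, diluted 1:100 into 1.1×CAMHB. Test compound titrated with imipenem at 1 μg/ml; incubated 22–24 h at 35°C, growth read by absorbance.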

[5] = system: Serratia marcescens expressing IMP-1 (CL5741); assay type: cell-based; conditions: IMP-1 strain CL5741, with imipenem 1 μg/ml, 95% inhibition of growth
Method in brief: as §3

[6] = system: Klebsiella pneumoniae expressing VIM-1 (IHMA599644); assay type: cell-based; conditions: VIM-1 strain IHMA599644, with imipenem 1 μg/ml, 95% inhibition of growth
Method in brief: as §3

[7] = fluorescence assay, read-out: VIM-1 IC50
[8] = fluorescence assay, read-out: IMP-1 IC50
[9] = ratio MITC95 PA_9798/MITC95 PA_9799
[10] = fold difference between efflux+ (MB9798) and efflux− (MB9799) strains, imipenem at 2 μg/mL

Compound	IC50 (VIM-1; [7]) [nM]	P. aeruginosa expressing IMP-1, efflux + (MB9798) MITC95 [1] [µM]	IC50 (NDM-1) [nM]	IC50 (IMP-1; [8]) [nM]	P. aeruginosa expressing IMP-1, efflux − (MB9799) MITC95 [2] [µM]	Efflux ratio [3, 9]	Escherichia coli MITC95 [4] [µM]	Serratia marcescens MITC95 [5] [µM]	Klebsiella pneumoniae MITC95 [6] [µM]	IC50 (VIM-1; VIM-1 IC50, fluorescence assay) [nM]	Concentration of metallo-β-lactamase inhibitor which restores susceptibility of efflux + (MB9798) strain to imipenem [1]	IC50 (IMP-1; IMP-1 IC50, fluorescence assay) [nM]	Concentration of metallo-β-lactamase inhibitor which restores susceptibility of efflux − (MB9799) strain to imipenem [2]	Efflux ratio [3, 10]
NC[C@@H](N)CNS(=O)(=O)c1ccc(-c2cnc(N)s2)c(-c2nn[nH]n2)c1S(N)(=O)=O [Example 377, (R)-4-(2-aminothiazol-5-yl)-N1-(2,3-diaminopropyl)-3-(2H-tetrazol-5-yl)benzene-1,2-disulfonamide]	0.885	1.563	0.573	1.18	0.7813	2.00	0.7813	1.563	3.125					
NC[C@@H](N)CNS(=O)(=O)c1ccc(-c2cnc3cc[nH]c3c2)c(-c2nn[nH]n2)c1S(N)(=O)=O [Example 378, (R)-N1-(2,3-diaminopropyl)-4-(1H-pyrrolo[3,2-b]pyridin-6-yl)-3-(2H-tetrazol-5-yl)benzene-1,2-disulfonamide]		3.125	0.0511	0.354	1.563	2.00	0.7813	1.563	3.125	0.0985				
NCc1nc2c(-c3ccc(S(=O)(=O)N[C@@H](CN)CO)c(S(N)(=O)=O)c3-c3nn[nH]n3)cccc2[nH]1 [Example 379, (S)—N^1-(1-amino-3-hydroxypropan-2-yl)-4-(2-(aminomethyl)-1H-benzo[d]imidazol-4-yl)-3-(2H-tetrazol-5-yl)benzene-1,2-disulfonamide]		1.563	0.0956	0.626	0.7813	2.00	1.563	1.563	1.563	0.135				
NC[C@@H](CO)NS(=O)(=O)c1ccc(-c2ccnc(N)c2)c(-c2nn[nH]n2)c1S(N)(=O)=O [Example 380, (S)—N1-(1-amino-3-hydroxypropan-2-yl)-4-(2-aminopyridin-4-yl)-3-(2H -tetrazol-5-yl)benzene-1,2-disulfonamide]		0.7813	0.178	0.544	0.7813	1.00	0.4883	0.7813	1.563	0.179				
NCc1nc2c(-c3ccc(S(=O)(=O)N[C@@H](CN)CO)c(S(N)(=O)=O)c3-c3nn[nH]n3)cccc2s1 [Example 381, (S)—N1-(1-amino-3-hydroxypropan-2-yl)-4-(2-(aminomethyl)benzo[d]thiazol-4-yl)-3-(2H-tetrazol-5-yl)benzene-1,2-disulfonamide]		1.172	0.0602	0.241	0.7813	1.50	0.7813	1.172	2.344	0.117				
NC[C@@H](CO)NS(=O)(=O)c1ccc(-c2cccc(N)n2)c(-c2nn[nH]n2)c1S(N)(=O)=O [Example 382, (S)—N1-(1-amino-3-hydroxypropan-2-yl)-4-(6-aminopyridin-2-yl)-3-(2H-tetrazol-5-yl)benzene-1,2-disulfonamide]	0.271	1.563	0.22	0.651	1.563	1.00	1.563	1.563	3.125					
C[C@H](CN)NS(=O)(=O)c1ccc(-c2cccc3[nH]c(CN)nc23)c(-c2nn[nH]n2)c1S(N)(=O)=O [Example 383, (R)-4-(2-(aminomethyl)-1H-benzo[d]imidazol-4-yl)-N1-(1-aminopropan-2-yl)-3-(2H-tetrazol-5-yl)benzene-1,2-disulfonamide]	0.102	0.7813	0.0568	0.536	0.7813	1.00	0.7813	1.563	1.563					
C[C@H](CN)NS(=O)(=O)c1ccc(-c2cccn3ccnc23)c(-c2nn[nH]n2)c1S(N)(=O)=O [Example 384, (R)—N1-(1-aminopropan-2-yl)-4-(imidazo[1,2-a]pyridin-8-yl)-3-(2H -tetrazol-5-yl) benzene-1,2-disulfonamide]	0.0539	0.7813	0.0233	0.0539	1.563	0.50	1.563	3.125	3.125					
NCc1nc2c(-c3ccc(S(=O)(=O)NC(CN)CN)c(S(N)(=O)=O)c3-c3nn[nH]n3)cccc2[nH]1 [Example 385, 4-(2-(Aminomethyl)-1H-benzo[d]imidazol-4-yl)-N1-(1,3-diaminopropan-2-yl)-3-(2H-tetrazol-5-yl)benzene-1,2-disulfonamide]	0.13	0.7813	0.111	0.782	0.7813	1.00	0.7813	0.7813	1.563					
NCC(CN)NS(=O)(=O)c1ccc(-c2cccn3ccnc23)c(-c2nn[nH]n2)c1S(N)(=O)=O [Example 386, N1-(1,3-diaminopropan-2-yl)-4-(imidazo[1,2-c]pyridin-8-yl)-3-(2H-tetrazol-5-yl) benzene-1,2-disulfonamide]		1.563	0.133	0.141	1.563	1.00	0.9766	1.563	3.125	0.168				
C[C@@H](CN)NS(=O)(=O)c1ccc(-c2cccc3sc(N)nc23)c(-c2nn[nH]n2)c1S(N)(=O)=O [Example 389, 4-(2-amino-1,3-benzothiazol-4-yl)-N^1-[(1S)-2-amino-1-methylethyl]-3-(2H-tetrazol-5-yl)benzene-1,2-disulfonamide]			0.289				3.125	3.125	3.125	0.744	1.563	1.81	1.563	1.00
C[C@@H](N)CNS(=O)(=O)c1ccc(-c2cccc3sc(N)nc23)c(-c2nn[nH]n2)c1S(N)(=O)=O [Example 390, 4-(2-amino-1,3-benzothiazol-4-yl)-N^1-[(2R)-2-aminopropyl]-3-(2H-tetrazol-5-yl)benzene-1,2-disulfonamide]			0.0605				3.125	1.563	3.125	0.33	0.7813	0.341	1.563	0.50

— US10221163B2 (priority 2015, dated 2019)
